Assay results taken from patent US9918989B2, “Combination therapies for malaria” (The Regents of the University of California, priority 2013, dated 2018).
Entries after “also recorded” stand apart in the source; their conditions may differ.

What was measured:
anti-parasite genes = assay: Midgut expression of anti-parasite/immune genes, quantitative PCR; type: in vivo, Anopheles stephensi; settings: BIRB 796 with killed lysate of P. falciparum; 6 h post-feeding
Plasmodium falciparum [1] = assay: P. falciparum growth in vitro, flow cytometry; type: cell-based; settings: 1 μM or 10 μM (up to 10 μM), 48 h, relative to vehicle control
[2] = system: Anopheles stephensi p38 MAPK; assay: MK2 phosphorylation in LPS-stimulated ASE cells, western blot; type: cell-based; settings: ASE cells pre-incubated with 10 μM inhibitor, 2 h later 1 μg/ml LPS
Plasmodium falciparum [3] = assay: P. falciparum development (oocysts) in A. stephensi after inhibitor-supplemented bloodmeal; type: in vivo, Anopheles stephensi; settings: 10 μM in bloodmeal
Method: Midguts were dissected and oocysts were counted at 10 days following infection. Dots in FIG. 3A and FIG. 3C represent oocyst numbers in one midgut, while percentage positive midguts or percentage of midguts with at least one oocyst are represented as means in FIG. 3B and FIG. 3D. Mean oocysts per midgut (lines, numbers on graph) were analyzed by ANOVA (alpha=0.05) for overall significance and by Student-Neuman-Keuls for pairwise comparisons using Graphpad Prism version 4.0 (San Diego, Calif.). Prevalences of mosquito infection (indicated on graph) were analyzed by chi-square (alpha=0.05).

A. freeborni = assay: Mosquito lifespan with inhibitor in water or bloodmeal; type: in vivo, Anopheles freeborni; settings: 1 μM or 10 μM daily in water or once weekly via bloodmeal
A. stephensi = assay: as above; type: in vivo, Anopheles stephensi; settings: 1 μM or 10 μM daily in water or once weekly via bloodmeal

Compound	midgut immune gene expression levels (anti-parasite genes)	P. falciparum growth in vitro (parasitemia) (Plasmodium falciparum [1])	p-MK2 levels (phosphorylation of MK2) [2]	infection prevalence in A. stephensi (Plasmodium falciparum [3]; midguts with at least one oocyst at 10 days)	P. falciparum oocysts/midgut (Plasmodium falciparum [3]; oocysts counted at 10 days)	impact on lifespan (A. freeborni)	impact on lifespan (A. stephensi)
Cc1ccc(-n2nc(C(C)(C)C)cc2NC(=O)Nc2ccc(OCCN3CCOCC3)c3ccccc23)cc1 [BIRB 796, 1-[5-tert-butyl-2-(4-methylphenyl)pyrazol-3-yl]-3-[4-(2-morpholin-4-ylethoxy)naphthalen-1-yl]urea]	significantly different from controls	Neither inhibitor significantly altered parasite growth	–	–	–	–	–
C[S+]([O-])c1ccc(-c2nc(-c3ccc(F)cc3)c(-c3ccncc3)[nH]2)cc1 (centres unmarked) [SB203580, 4-[4-(4-fluorophenyl)-2-(4-methylsulfinylphenyl)-1H-imidazol-5-yl]pyridine]	–	Neither inhibitor significantly altered parasite growth; also recorded: no such effects	undetectable	significantly reduced	significantly reduced	–	–
Oc1c2ccccc2c2c3c(cccc13)N=N2 [SP600125, 1;9-Pyrazoloanthrone]	–	–	–	–	–	no negative impact	no negative impact
